# Laboratory results reported in patent US10869871B2, “Compositions and methods of modulating short-chain dehydrogenase activity” (CASE WESTERN RESERVE UNIVERSITY, priority 2013, dated 2020).
# Experiments:
# [1] = system: 15-PGDH-luciferase fusion reporter in V9m, LS174T and V503 colon cancer cell lines; assay: 15-PGDH-luciferase fusion reporter induction in colon cancer cell lines; type: cell-based; details: V9m, LS174T, V503; relative to DMSO
# A549 cells = assay: PGE2 levels in medium of IL1-beta stimulated A549 cells; type: cell-based
# Hepatocyte stability = type: in vitro ADME; details: compound in presence of hepatocytes in culture; in words
# Protocol: (§1) Time to inhibition refers to the time needed to inhibit the generation of NADH by 15-PGDH from the moment with drug is added into the reaction mix. Delta Tm refers to the shift in melting temperature of recombinant 15-PGDH in the presence of drug (with cofactor NADH also present). Concentration of Full Cell Line Reporter Induction refers to the concentration of drug that needs to be added to reporter cell line to achieve maximal induction of the 15-PGDH-luciferase gene fusion reporter cassette, as measured by luciferase assays. Hepatocyte stability refers to the half-life of compound in the presence of hepatocytes in culture. Toxicity refers to the concentration of compound needed to decrease cell numbers in a cell culture assay.
# cell culture = assay: Toxicity: concentration needed to decrease cell numbers in a cell culture assay; type: cell-based
# Protocol: as §1
# [2] = 21 day toxicity study in FVB mice (daily weights); type: in vivo, mouse; details: 5 mg/kg IP twice daily for 21 days
# bone marrow [3] = assay: Bone marrow analysis of C57BL/6J mice treated IP; type: in vivo, mouse; details: IP 5 mg/kg or 20 mg/kg
# Text: FIGS. […] Experimental conditions are noted on the figure.
# bone marrow [4] = assay: Competitive bone marrow transplant chimerism (CD45.2 donor treated); type: in vivo, mouse; details: donor 5 mg/kg IP daily for 3 doses; weeks 12 and 16
# Protocol: On day 3 mice were sacrificed, marrow flushed and mixed at a 1:1 ratio with vehicle treated CD45.1 marrow. 2 million whole BM cells were injected into the tail vein of lethally irradiated CD45.1 mice and percent chimerism measured via flow cytometry at weeks 8, 12, 16.
# [5] = Survival of mice after whole body irradiation; type: in vivo, mouse
# liver = assay: Liver regeneration after partial hepatectomy, C57BL/6J mice; type: in vivo; details: 5 mg/kg IP bid, one mouse each
# [6] = Survival after acetaminophen (Tylenol) LD50 dose 600 mg/kg IP; type: in vivo, mouse; details: for number of mice surviving: first dose immediately after Tylenol injection;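 as to all read-outs here: controls were mice given only vehicle, dosed once or twice per day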
# colon = assay: Dextran sodium sulfate (DSS) induced colitis in FVB mice; type: in vivo, mouse; details: 22 days of study
# [7] = Survival of lethally irradiated mice after bone marrow transplant (30 days); type: in vivo, mouse; details: 5 mg/kg IP bid
# Text: A matched control cohort received injections with vehicle only. On day one mice received an infusion of donor marrow at doses of 100,000 cells; 200,000 cells; or 500,000 cells. […] Among mice receiving 200,000 donor cells, all control mice were dead by day 12.
# blood and bone marrow = assay: Blood and bone marrow recovery after transplant of 500,000 donor marrow cells; type: in vivo, mouse
smiles,measurement,setting,value
"CCCC[S+]([O-])c1sc2nc(-c3cccs3)cc(-c3ccccc3)c2c1N (stereo not shown) [SW033291, 2-(butylsulfinyl)-4-phenyl-6-(thiophen-2-yl)thieno[2,3-b]pyridin-3-amine]",luciferase activity of 15-PGDH luciferase fusion cells,[1],increase luciferase activity
same,rank of PGE2 level in medium,A549 cells; 100 nM concentration of drug,next highest level of PGE2
same,"PGE2 level in medium, reflecting 15-PGDH activity","A549 cells; IL1-beta 23 hours, compound added for last 5 hours",clear inhibition of 15-PGDH activity
same,highest PGE2 level achieved in medium,"A549 cells; IL-1β 16 h, compound 8 h",3000 pg/mL
same,Hepatocyte stability,Hepatocyte stability,Stable > couple hrs
same,Toxicity,cell culture,>10 µM
same,mouse weight during treatment,[2],no evidence for SW033291 reducing mouse weight
same,percent of Sca1+/c-Kit+ lineage negative (SKL) cells,bone marrow [3],unchanged
same,percent blood chimerism of CD45.2 marked cells,bone marrow [4],significantly increased
same,number of mice surviving,"[5]; 7 Gy, 5 mg/kg IP daily for 7 doses, Day 0",3
same,number of mice surviving,"[5]; 7 Gy, 5 mg/kg IP daily for 7 doses, Day 6",3
same,number of mice surviving,"[5]; 7 Gy, 5 mg/kg IP daily for 7 doses, Day 7",3
same,number of mice surviving,"[5]; 7 Gy, 5 mg/kg IP daily for 7 doses, Day 8",3
same,number of mice surviving,"[5]; 7 Gy, 5 mg/kg IP daily for 7 doses, Day 9",3
same,number of mice surviving,"[5]; 7 Gy, 5 mg/kg IP daily for 7 doses, Day 10",3
same,number of mice surviving,"[5]; 7 Gy, 5 mg/kg IP daily for 7 doses, Day 11",3
same,number of mice surviving,"[5]; 7 Gy, 5 mg/kg IP daily for 7 doses, Day 12",3
same,number of mice surviving,"[5]; 7 Gy, 5 mg/kg IP daily for 7 doses, Day 13",3
same,number of mice surviving,"[5]; 7 Gy, 5 mg/kg IP daily for 7 doses, Day 14",3
same,number of mice surviving,"[5]; 7 Gy, 5 mg/kg IP daily for 7 doses, Day 15",3
same,appearance of mice,"[5]; 7 Gy, 5 mg/kg IP daily for 7 doses, Day 25 (cell reads Looks Healthy)",Healthy
same,number of mice surviving,"[5]; 9 Gy, 5 mg/kg IP daily for 7 doses, Day 0",3
same,number of mice surviving,"[5]; 9 Gy, 5 mg/kg IP daily for 7 doses, Day 6",3
same,number of mice surviving,"[5]; 9 Gy, 5 mg/kg IP daily for 7 doses, Day 7",3
same,number of mice surviving,"[5]; 9 Gy, 5 mg/kg IP daily for 7 doses, Day 8",3
same,number of mice surviving,"[5]; 9 Gy, 5 mg/kg IP daily for 7 doses, Day 9",3
same,number of mice surviving,"[5]; 9 Gy, 5 mg/kg IP daily for 7 doses, Day 10",3
same,number of mice surviving,"[5]; 9 Gy, 5 mg/kg IP daily for 7 doses, Day 11",3
same,number of mice surviving,"[5]; 9 Gy, 5 mg/kg IP daily for 7 doses, Day 12",2
same,number of mice surviving,"[5]; 9 Gy, 5 mg/kg IP daily for 7 doses, Day 13",2
same,number of mice surviving,"[5]; 9 Gy, 5 mg/kg IP daily for 7 doses, Day 14",1
same,number of mice surviving,"[5]; 9 Gy, 5 mg/kg IP daily for 7 doses, Day 15",0
same,number of mice surviving,"[5]; 11 Gy, 5 mg/kg IP 1 dose/daily for 7 days (Table 7), Day 0",3
same,number of mice surviving,"[5]; 11 Gy, 5 mg/kg IP 1 dose/daily for 7 days (Table 7), Day 5",3
same,number of mice surviving,"[5]; 11 Gy, 5 mg/kg IP 1 dose/daily for 7 days (Table 7), Day 6",3
same,number of mice surviving,"[5]; 11 Gy, 5 mg/kg IP 1 dose/daily for 7 days (Table 7), Day 7",3
same,number of mice surviving,"[5]; 11 Gy, 5 mg/kg IP 1 dose/daily for 7 days (Table 7), Day 8",2
same,number of mice surviving,"[5]; 11 Gy, 5 mg/kg IP 1 dose/daily for 7 days (Table 7), Day 9",1
same,number of mice surviving,"[5]; 11 Gy, 5 mg/kg IP 1 dose/daily for 7 days (Table 7), Day 10",0
same,number of mice surviving,"[5]; 11 Gy, 5 mg/kg IP 1 dose/daily, continuous every day, Day 0",3
same,number of mice surviving,"[5]; 11 Gy, 5 mg/kg IP 1 dose/daily, continuous every day, Day 5",3
same,number of mice surviving,"[5]; 11 Gy, 5 mg/kg IP 1 dose/daily, continuous every day, Day 6",3
same,number of mice surviving,"[5]; 11 Gy, 5 mg/kg IP 1 dose/daily, continuous every day, Day 7",3
same,number of mice surviving,"[5]; 11 Gy, 5 mg/kg IP 1 dose/daily, continuous every day, Day 8",3
same,number of mice surviving,"[5]; 11 Gy, 5 mg/kg IP 1 dose/daily, continuous every day, Day 9",2
same,number of mice surviving,"[5]; 11 Gy, 5 mg/kg IP 1 dose/daily, continuous every day, Day 10",0
same,number of mice surviving,"[5]; 11 Gy, 5 mg/kg IP 2 dose daily for 7 days, Day 0",3
same,number of mice surviving,"[5]; 11 Gy, 5 mg/kg IP 2 dose daily for 7 days, Day 5",3
same,number of mice surviving,"[5]; 11 Gy, 5 mg/kg IP 2 dose daily for 7 days, Day 6",3
same,number of mice surviving,"[5]; 11 Gy, 5 mg/kg IP 2 dose daily for 7 days, Day 7",3
same,number of mice surviving,"[5]; 11 Gy, 5 mg/kg IP 2 dose daily for 7 days, Day 8",3
same,number of mice surviving,"[5]; 11 Gy, 5 mg/kg IP 2 dose daily for 7 days, Day 9",2
same,number of mice surviving,"[5]; 11 Gy, 5 mg/kg IP 2 dose daily for 7 days, Day 10",0
same,longer survival versus vehicle,"[5]; 11Gy, 5 mg/kg IP daily for 7 doses",48 h
same,number of mice surviving,"[5]; 11 Gy, 5 mg/kg IP daily for 7 doses (Table 6), Day 0",3
same,number of mice surviving,"[5]; 11 Gy, 5 mg/kg IP daily for 7 doses (Table 6), Day 5",3
same,number of mice surviving,"[5]; 11 Gy, 5 mg/kg IP daily for 7 doses (Table 6), Day 6",3
same,number of mice surviving,"[5]; 11 Gy, 5 mg/kg IP daily for 7 doses (Table 6), Day 7",3
same,number of mice surviving,"[5]; 11 Gy, 5 mg/kg IP daily for 7 doses (Table 6), Day 8",3
same,number of mice surviving,"[5]; 11 Gy, 5 mg/kg IP daily for 7 doses (Table 6), Day 9",2
same,number of mice surviving,"[5]; 11 Gy, 5 mg/kg IP daily for 7 doses (Table 6), Day 10",0
same,longer survival on average versus vehicle,"[5]; 11Gy, any of the 5 mg/kg dosing schedules",1 to 2 days
same,serum ALT levels versus control,liver,lower
same,survival versus control,"[6]; 5 mg/kg IP beginning immediately following acetaminophen, once or twice daily, through 120 hours",No difference
same,Survival (number of mice),"[6]; 5 mg/kg IP bid from 3 hours prior to acetaminophen, 6 doses, cohort of 6, 0 hrs",6
same,Survival (number of mice),"[6]; 5 mg/kg IP bid from 3 hours prior to acetaminophen, 6 doses, cohort of 6, 16 hr",6
same,Survival (number of mice),"[6]; 5 mg/kg IP bid from 3 hours prior to acetaminophen, 6 doses, cohort of 6, 24 hrs",5
same,Survival (number of mice),"[6]; 5 mg/kg IP bid from 3 hours prior to acetaminophen, 6 doses, cohort of 6, 48 hrs",3
same,Survival (number of mice),"[6]; 5 mg/kg IP bid from 3 hours prior to acetaminophen, 6 doses, cohort of 6, 64 hrs",3
same,Survival (number of mice),"[6]; 5 mg/kg IP bid from 3 hours prior to acetaminophen, 6 doses, cohort of 6, 72 hrs",3
same,Survival (number of mice),"[6]; 5 mg/kg IP bid from 3 hours prior to acetaminophen, 6 doses, cohort of 6, 88 hr",3
same,Survival (number of mice),"[6]; 5 mg/kg IP bid from 3 hours prior to acetaminophen, 6 doses, cohort of 6, 96 hr",3
same,Survival (number of mice),"[6]; 5 mg/kg IP bid from 3 hours prior to acetaminophen, 6 doses, cohort of 6, 112 hr",3
same,Survival (number of mice),"[6]; 5 mg/kg IP bid from 3 hours prior to acetaminophen, 6 doses, cohort of 6, 120 hr",3
same,Survival (number of mice),"[6]; 5 mg/kg IP bid from 48 hours prior to acetaminophen, 9 doses, cohort of 12, 0 hrs",12
same,Survival (number of mice),"[6]; 5 mg/kg IP bid from 48 hours prior to acetaminophen, 9 doses, cohort of 12, 16 hr",12
same,Survival (number of mice),"[6]; 5 mg/kg IP bid from 48 hours prior to acetaminophen, 9 doses, cohort of 12, 24 hrs",12
same,Survival (number of mice),"[6]; 5 mg/kg IP bid from 48 hours prior to acetaminophen, 9 doses, cohort of 12, 40 hrs",11
same,Survival (number of mice),"[6]; 5 mg/kg IP bid from 48 hours prior to acetaminophen, 9 doses, cohort of 12, 48 hrs",10
same,Survival (number of mice),"[6]; 5 mg/kg IP bid from 48 hours prior to acetaminophen, 9 doses, cohort of 12, 64 hrs",10
same,Survival (number of mice),"[6]; 5 mg/kg IP bid from 48 hours prior to acetaminophen, 9 doses, cohort of 12, 72 hrs",10
same,Survival (number of mice),"[6]; 5 mg/kg IP bid from 48 hours prior to acetaminophen, 9 doses, cohort of 12, 88 hr",10
same,Survival (number of mice),"[6]; 5 mg/kg IP bid from 48 hours prior to acetaminophen, 9 doses, cohort of 12, 96 hr",10
same,Survival (number of mice),"[6]; 5 mg/kg IP bid from 48 hours prior to acetaminophen, 9 doses, cohort of 12, 112 hr",10
same,Survival (number of mice),"[6]; 5 mg/kg IP bid from 48 hours prior to acetaminophen, 9 doses, cohort of 12, 120 hr",10
same,number of mice surviving,"[6]; 1 dose daily, cohort of 6, 0 hrs",6
same,number of mice surviving,"[6]; 1 dose daily, cohort of 6, 16 hr",6
same,number of mice surviving,"[6]; 1 dose daily, cohort of 6, 24 hrs",6
same,number of mice surviving,"[6]; 2 dose daily, cohort of 6, 0 hrs",6
same,number of mice surviving,"[6]; 2 dose daily, cohort of 6, 16 hr",6
same,number of mice surviving,"[6]; 2 dose daily, cohort of 6, 24 hrs",6
same,number of mice surviving,"[6]; 2 dose daily, cohort of 6, 48 hrs",3
same,number of mice surviving,"[6]; 2 dose daily, cohort of 6, 64 hrs",3
same,number of mice surviving,"[6]; 2 dose daily, cohort of 6, 72 hrs",3
same,number of mice surviving,"[6]; 2 dose daily, cohort of 6, 88 hr",3
same,number of mice surviving,"[6]; 2 dose daily, cohort of 6, 96 hr",3
same,number of mice surviving,"[6]; 2 dose daily, cohort of 6, 112 hr",3
same,number of mice surviving,"[6]; 2 dose daily, cohort of 6, 120 hr",3
same,change from baseline weight versus control,colon,greater weight at all time points
same,median survival versus control,"[7]; 100,000 donor cells",approximate doubling of median survival
same,survival at 30 days,"[7]; 500,000 donor cells",all survived
same,total platelet count versus control,blood and bone marrow; day 5 after transplant,significantly higher total platelet count
same,total white count versus control,blood and bone marrow; day 5 after transplant,significantly higher total white count
same,platelets,blood and bone marrow; day 8 after transplant,"77,000"
same,neutrophils,blood and bone marrow; day 12 after transplant,332
same,neutrophils,blood and bone marrow; day 18 after transplant,835
